# Patent US20150094474A1, “AGRICULTURAL CHEMICALS” (Redx Pharma Ltd., priority 2012, published 2015)
# Assays:
# [1] = tested on: barley; assay: Herbicidal bioassay, barley (% necrosis); format: in vivo
# How it was run: (§1)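 Scoring of % necrosis followed EPPO guideline PP1/135 at specified growth intervals, five replicates per species and treatment. Plants at the 2-4 true leaf stage received Potter-tower sprays of DMSO-diluted compounds across six levels from 0.0001% to 0.05%, with water and DMSO controls.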
# [2] = tested on: peas; assay: Herbicidal bioassay, peas (% necrosis); format: in vivo
# How it was run: as §1
smiles,measurement,setting,value
"CC(/C=N/O)Oc1ccc(Oc2ccc(C(F)(F)F)cn2)cc1 (stereo not drawn) [Compound 64, (1E)-2-[4-[[5-(Trifluoromethyl)-2-pyridyl]oxy]phenoxy]propanal oxime]",Sum of % necrosis in barley,"[1]; Dose 0.000001, Day 0",C (less than 50% necrosis)
same,Sum of % necrosis in barley,"[1]; Dose 0.000001, Day 1",C (less than 50% necrosis)
same,Sum of % necrosis in barley,"[1]; Dose 0.000001, Day 3",C (less than 50% necrosis)
same,Sum of % necrosis in barley,"[1]; Dose 0.000001, Day 7",C (less than 50% necrosis)
same,Sum of % necrosis in barley,"[1]; Dose 0.000001, Day 10",C (less than 50% necrosis)
same,Sum of % necrosis in barley,"[1]; Dose 0.000001, Day 14",C (less than 50% necrosis)
same,Sum of % necrosis in barley,"[1]; Dose 0.000001, Day 21",C (less than 50% necrosis)
same,Sum of % necrosis in barley,"[1]; Dose 0.000005, Day 0",C (less than 50% necrosis)
same,Sum of % necrosis in barley,"[1]; Dose 0.000005, Day 1",C (less than 50% necrosis)
same,Sum of % necrosis in barley,"[1]; Dose 0.000005, Day 3",C (less than 50% necrosis)
same,Sum of % necrosis in barley,"[1]; Dose 0.000005, Day 7",C (less than 50% necrosis)
same,Sum of % necrosis in barley,"[1]; Dose 0.000005, Day 10",C (less than 50% necrosis)
same,Sum of % necrosis in barley,"[1]; Dose 0.000005, Day 14",C (less than 50% necrosis)
same,Sum of % necrosis in barley,"[1]; Dose 0.000005, Day 21",C (less than 50% necrosis)
same,Sum of % necrosis in barley,"[1]; Dose 0.00001, Day 0",C (less than 50% necrosis)
same,Sum of % necrosis in barley,"[1]; Dose 0.00001, Day 1",C (less than 50% necrosis)
same,Sum of % necrosis in barley,"[1]; Dose 0.00001, Day 3",C (less than 50% necrosis)
same,Sum of % necrosis in barley,"[1]; Dose 0.00001, Day 7",C (less than 50% necrosis)
same,Sum of % necrosis in barley,"[1]; Dose 0.00001, Day 10",C (less than 50% necrosis)
same,Sum of % necrosis in barley,"[1]; Dose 0.00001, Day 14",C (less than 50% necrosis)
same,Sum of % necrosis in barley,"[1]; Dose 0.00001, Day 21",C (less than 50% necrosis)
same,Sum of % necrosis in barley,"[1]; Dose 0.00005, Day 0",C (less than 50% necrosis)
same,Sum of % necrosis in barley,"[1]; Dose 0.00005, Day 1",C (less than 50% necrosis)
same,Sum of % necrosis in barley,"[1]; Dose 0.00005, Day 3",C (less than 50% necrosis)
same,Sum of % necrosis in barley,"[1]; Dose 0.00005, Day 7",C (less than 50% necrosis)
same,Sum of % necrosis in barley,"[1]; Dose 0.00005, Day 10",C (less than 50% necrosis)
same,Sum of % necrosis in barley,"[1]; Dose 0.00005, Day 14",C (less than 50% necrosis)
same,Sum of % necrosis in barley,"[1]; Dose 0.00005, Day 21",C (less than 50% necrosis)
same,Sum of % necrosis in barley,"[1]; Dose 0.0001, Day 0",C (less than 50% necrosis)
same,Sum of % necrosis in barley,"[1]; Dose 0.0001, Day 1",C (less than 50% necrosis)
same,Sum of % necrosis in barley,"[1]; Dose 0.0001, Day 3",C (less than 50% necrosis)
same,Sum of % necrosis in barley,"[1]; Dose 0.0001, Day 7",C (less than 50% necrosis)
same,Sum of % necrosis in barley,"[1]; Dose 0.0001, Day 10",C (less than 50% necrosis)
same,Sum of % necrosis in barley,"[1]; Dose 0.0001, Day 14",C (less than 50% necrosis)
same,Sum of % necrosis in barley,"[1]; Dose 0.0001, Day 21",C (less than 50% necrosis)
same,Sum of % necrosis in barley,"[1]; Dose 0.0005, Day 0",C (less than 50% necrosis)
same,Sum of % necrosis in barley,"[1]; Dose 0.0005, Day 1",C (less than 50% necrosis)
same,Sum of % necrosis in barley,"[1]; Dose 0.0005, Day 3",C (less than 50% necrosis)
same,Sum of % necrosis in barley,"[1]; Dose 0.0005, Day 7",C (less than 50% necrosis)
same,Sum of % necrosis in barley,"[1]; Dose 0.0005, Day 10",B (50%-80% necrosis)
same,Sum of % necrosis in barley,"[1]; Dose 0.0005, Day 14",B (50%-80% necrosis)
same,Sum of % necrosis in barley,"[1]; Dose 0.0005, Day 21",B (50%-80% necrosis)
same,Sum of % necrosis in Peas,"[2]; Dose 0.000001, Day 0",C (less than 50% necrosis)
same,Sum of % necrosis in Peas,"[2]; Dose 0.000001, Day 1",C (less than 50% necrosis)
same,Sum of % necrosis in Peas,"[2]; Dose 0.000001, Day 3",C (less than 50% necrosis)
same,Sum of % necrosis in Peas,"[2]; Dose 0.000001, Day 7",C (less than 50% necrosis)
same,Sum of % necrosis in Peas,"[2]; Dose 0.000001, Day 10",C (less than 50% necrosis)
same,Sum of % necrosis in Peas,"[2]; Dose 0.000001, Day 14",C (less than 50% necrosis)
same,Sum of % necrosis in Peas,"[2]; Dose 0.000001, Day 21",B (50%-80% necrosis)
same,Sum of % necrosis in Peas,"[2]; Dose 0.000005, Day 0",C (less than 50% necrosis)
same,Sum of % necrosis in Peas,"[2]; Dose 0.000005, Day 1",C (less than 50% necrosis)
same,Sum of % necrosis in Peas,"[2]; Dose 0.000005, Day 3",C (less than 50% necrosis)
same,Sum of % necrosis in Peas,"[2]; Dose 0.000005, Day 7",C (less than 50% necrosis)
same,Sum of % necrosis in Peas,"[2]; Dose 0.000005, Day 10",C (less than 50% necrosis)
same,Sum of % necrosis in Peas,"[2]; Dose 0.000005, Day 14",C (less than 50% necrosis)
same,Sum of % necrosis in Peas,"[2]; Dose 0.000005, Day 21",C (less than 50% necrosis)
same,Sum of % necrosis in Peas,"[2]; Dose 0.00001, Day 0",C (less than 50% necrosis)
same,Sum of % necrosis in Peas,"[2]; Dose 0.00001, Day 1",C (less than 50% necrosis)
same,Sum of % necrosis in Peas,"[2]; Dose 0.00001, Day 3",C (less than 50% necrosis)
same,Sum of % necrosis in Peas,"[2]; Dose 0.00001, Day 7",C (less than 50% necrosis)
same,Sum of % necrosis in Peas,"[2]; Dose 0.00001, Day 10",C (less than 50% necrosis)
same,Sum of % necrosis in Peas,"[2]; Dose 0.00001, Day 14",B (50%-80% necrosis)
same,Sum of % necrosis in Peas,"[2]; Dose 0.00001, Day 21",A (over 80% necrosis)
same,Sum of % necrosis in Peas,"[2]; Dose 0.00005, Day 0",C (less than 50% necrosis)
same,Sum of % necrosis in Peas,"[2]; Dose 0.00005, Day 1",C (less than 50% necrosis)
same,Sum of % necrosis in Peas,"[2]; Dose 0.00005, Day 3",C (less than 50% necrosis)
same,Sum of % necrosis in Peas,"[2]; Dose 0.00005, Day 7",C (less than 50% necrosis)
same,Sum of % necrosis in Peas,"[2]; Dose 0.00005, Day 10",C (less than 50% necrosis)
same,Sum of % necrosis in Peas,"[2]; Dose 0.00005, Day 14",C (less than 50% necrosis)
same,Sum of % necrosis in Peas,"[2]; Dose 0.00005, Day 21",C (less than 50% necrosis)
same,Sum of % necrosis in Peas,"[2]; Dose 0.0001, Day 0",C (less than 50% necrosis)
same,Sum of % necrosis in Peas,"[2]; Dose 0.0001, Day 1",C (less than 50% necrosis)
same,Sum of % necrosis in Peas,"[2]; Dose 0.0001, Day 3",C (less than 50% necrosis)
same,Sum of % necrosis in Peas,"[2]; Dose 0.0001, Day 7",C (less than 50% necrosis)
same,Sum of % necrosis in Peas,"[2]; Dose 0.0001, Day 10",C (less than 50% necrosis)
same,Sum of % necrosis in Peas,"[2]; Dose 0.0001, Day 14",B (50%-80% necrosis)
same,Sum of % necrosis in Peas,"[2]; Dose 0.0001, Day 21",A (over 80% necrosis)
same,Sum of % necrosis in Peas,"[2]; Dose 0.0005, Day 0",C (less than 50% necrosis)
same,Sum of % necrosis in Peas,"[2]; Dose 0.0005, Day 1",C (less than 50% necrosis)
same,Sum of % necrosis in Peas,"[2]; Dose 0.0005, Day 3",C (less than 50% necrosis)
same,Sum of % necrosis in Peas,"[2]; Dose 0.0005, Day 7",C (less than 50% necrosis)
same,Sum of % necrosis in Peas,"[2]; Dose 0.0005, Day 10",C (less than 50% necrosis)
same,Sum of % necrosis in Peas,"[2]; Dose 0.0005, Day 14",C (less than 50% necrosis)
same,Sum of % necrosis in Peas,"[2]; Dose 0.0005, Day 21",A (over 80% necrosis)
